Assay results reported in ChEMBL document CHEMBL1201862, “PubChem BioAssay data set” (2004).
Activity calls are given as the source filed them.

How the values were obtained:
[1] = target: T1, Fatty acid synthase (Homo sapiens, UniProt P49327); test: FAS thioesterase domain inhibitors, dose response, biochemical, endpoint fluorescence intensity, uHTS hits (AID 624327); format: functional;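 also: fluorescence from hydrolysis of an O-methyl fluorescein acyl ester substrate by the enzyme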
[2] = target: T1, Fatty acid synthase; test: FAS thioesterase domain inhibitors, dose response, biochemical, kinetic fluorescence intensity (AID 624326); format: functional;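 also: rate of fluorescence rise from hydrolysis of a fluorogenic O-methyl fluorescein ester substrate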
[3] = target: Major prion protein (Homo sapiens, UniProt P04156); format: functional, cell-based
[4] = cells
[5] = intracellular Trypanosoma cruzi inhibitors in host cells – cell-based, plate reader, cherry-pick samples, set 3, dose response (AID 651818); format: functional;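 also: compounds incubated with infected cells for about four days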
[6] = target: Albumin (Bos taurus, UniProt P02769); test: Counterscreen for inhibitors of T-cell receptor (TCR)-CD3 interaction: Fluorescence-based biochemical high throughput dose response assay to identify inhibitors of T-cell receptor (TCR)-CD3 interaction using a TAMRA-labeled BSA probe.; format: functional
[7] = Luminescence Cell-Based Dose Response HTS to Identify Activators of Luciferase Translation or Activity in H4 […] Cells. [Related pubchem assays: 1829 (Project Summary), 1814 (Primary HTS)]; format: functional
[8] = target: Mu-type opioid receptor (Homo sapiens, UniProt P35372); format: functional, cell-based;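 also: U2OS cells with beta-arrestin recruitment to OPRM1 by beta-gal complementation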
[9] = Luminescence Cell-Based Dose Confirmation HTS to Identify Activators of 5'UTR Stem-Loop Driven Alpha-Synuclein mRNA Translation in H4 Neuroglioblastoma Cells. [Related pubchem assays: 1829 (Project Summary), 1814 (Primary HTS)]; format: functional
[10] = system: H4; test: Luminescence Cell-Based Dose Response HTS to Identify Activators of 5'UTR Stem-Loop Driven Prion Protein mRNA Translation in H4 Neuroglioblastoma Cells. [Related pubchem assays: 1829 (Project Summary), 1814 (Primary HTS)]; format: functional; settings: Homo sapiens
[11] = target: 5-hydroxytryptamine receptor 2A (Mus musculus, UniProt P35363); format: functional, cell-based;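 also: CHO-K1 cells with tagged receptor and beta-arrestin; agonist potency measured as compound-induced activation of the receptor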
[12] = system: HEK293; test: inhibitors of LMP1-driven NF-kB reporter, dose response, cell-based, HEK293, luciferase, cherry-pick (AID 588343); format: functional; settings: Homo sapiens
[13] = ZM109 Env clade C HIV-1 fusion inhibitors, dose response, HeLa effector, CEM target cells, luciferase, cherry-pick (AID 652058); format: functional, cell-based
[14] = CEM21 lymphoblast cell cytotoxicity, dose response, cytotoxicity control for viral fusion inhibitor project, CellTiter-Glo luminescence, cherry-picked (AID 652042); format: functional, cell-based;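 also: potency for signal decrease meaning cytotoxicity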
[15] = system: Streptococcus; test: Group A Streptococcus viability loss, dose response, counter-screen for streptokinase expression inhibitor project, luminescence, BacTiterGlo (AID 1915); format: functional, organism-based;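 also: potency for reduction of bacterial viability or growth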
[16] = system: Streptococcus sp. 'group A'; test: growth inhibition of control SK(-) GAS strain, dose response, counter-screen for streptokinase expression inhibitor project, luminescence, kanamycin, BacTiterGlo, confirmation (AID 1900); format: functional, organism-based
[17] = inhibitors of firefly luciferase expression or activity, dose response, H4 neuroglioma cells, luminescence (AID 1990); format: functional, cell-based
[18] = Luminescence Cell-Based Dose Response HTS to Identify Inhibitors of 5'UTR Stem-Loop Driven Prion Protein mRNA Translation in H4 Neuroglioblastoma Cells. [Related pubchem assays: 1827 (Project Summary), 1813 (Primary HTS)]; format: functional
[19] = inhibitors of clade B AD8 Env fusion, dose response, cell-based, cherry-pick (AID 652062); format: functional;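 also: luciferase signal from cell-cell fusion driven by HIV-1 clade B AD8 Env; potency is for inhibitors of fusion seen as a drop in luminescence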
[20] = inhibitors of SNCA 5'UTR-driven reporter translation, confirmation, H4 neuroglioma cells, luminescence (AID 1988); format: functional, cell-based
[21] = inhibitors of HIV Env-driven cell fusion, dose response, cherry-pick (AID 652057); format: functional, cell-based
[22] = system: INS1; test: beta cell apoptosis inhibitors, cytokine rescue, dose response, luminescence, retest (AID 449756); format: functional, cell-based; settings: Rattus norvegicus;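 also: cell death triggered by IL-1 beta plus TNF-alpha plus IFN-gamma mixture; protective hits raise ATP signal compared with cytokine alone wells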

Cc1ccc2[nH]c(SCC(=O)Nc3ccc(F)c([N+](=O)[O-])c3)nc2c1
IC50 [1]: 6.64 µM (active) | IC50 [2]: 8 µM (active)

CN1C(=O)C(C)(C)c2cc(S(=O)(=O)N3CCCC(C(=O)Nc4ccc(Cl)cc4)C3)ccc21 (centres undefined)
IC50 [3]: 5.86 µM (active) | IC50 [4]: > 138 µM (inactive)

COc1cc(OC)c(N2CC(C(=O)NCCC3=CCCCC3)CC2=O)cc1Cl (centres undefined)
IC50 [1]: 9.83 µM (active) | IC50 [2]: 11.8 µM (active)

N#CC(CCc1ccccc1[N+](=O)[O-])(CCc1ccccc1[N+](=O)[O-])C(N)=O
IC50 [1]: 11.4 µM (active) | IC50 [2]: 12 µM (active)

C[C@@H]1CN([C@@H](C)CO)C(=O)Cc2cc(NC(=O)Nc3ccc(F)cc3)ccc2O[C@@H]1CN(C)Cc1ccc(C(F)(F)F)cc1
AC50 [5]: 4.91 µM (active)

C[C@H](CO)N1C[C@H](C)[C@@H](CN(C)Cc2ccncc2)Oc2c(NC(=O)c3ccc(-c4nccs4)cc3)cccc2C1=O
AC50 [5]: 20 µM (inactive)

CC1(C(=O)Nc2ccc(Cl)c(Cl)c2)CCN1C(=O)CC1CCCC1 (centres undefined)
IC50 [1]: 8.5 µM (active) | IC50 [2]: 4.39 µM (active)

COc1ccccc1C(=O)NNC(=O)c1ccc2ccccc2c1O
IC50 [6]: > 94.2 µM (inactive)

C[C@H]1CN([C@@H](C)CO)C(=O)Cc2cc(NC(=O)Nc3cccc4ccccc34)ccc2O[C@@H]1CN(C)Cc1ccc(-c2ccccc2)cc1
AC50 [5]: 7.08 µM (active)

Cc1noc(C)c1S(=O)(=O)Nc1ccc2c(c1)CC(=O)N([C@H](C)CO)C[C@@H](C)[C@@H](CN(C)Cc1ccc(C(F)(F)F)cc1)O2
AC50 [5]: 5.96 µM (active)

C[C@H](CO)N1C[C@H](C)[C@H](CN(C)Cc2ccc(C(F)(F)F)cc2)Oc2ccc(NC(=O)Nc3cccc4ccccc34)cc2CC1=O
AC50 [5]: 1.05 µM (active)

Brc1ccc2nc(-c3ccc(CN4CCC5(CC4)CNc4ccccc45)cc3)c(-c3ccccc3)nc2c1
IC50 [3]: 7.84 µM (active) | IC50 [4]: > 138 µM (inactive)

CN1CCc2c(sc(/N=C/c3cc(Cl)ccc3O)c2C#N)C1
EC50 [7]: 5.07 µM (active) | EC50 [8]: 92.4 µM (inactive) | EC50 [9]: 7.13 µM (active) | EC50 [10]: 34.8 µM (active) | EC50 [11]: 76.1 µM (inactive)

CCCc1cc(=O)n2ncc(-c3ccc(Cl)cc3)c2[nH]1
AC50 [12]: 4.07 µM (active) | AC50 [13]: 7.51 µM (active) | AC50 [14]: 4.59 µM (active) | EC50 [15]: 5.62 µM (active) | EC50 [16]: 1.71 µM (active) | EC50 [17]: 11.6 µM (active) | EC50 [18]: 12.3 µM (active) | AC50 [19]: 11.2 µM (active) | EC50 [20]: 10.9 µM (active) | AC50 [21]: 2.65 µM (active) | AC50 [22]: 5.79 µM (active)
